These results are taken from US7056945B1, “Selective inhibition of neuronal nitric oxide synthase” (priority 2002, dated 2006).

Test [1] concerns NOS. Conditions: cited from earlier work.
The test system of test [2] is all three NOS isoforms. As to conditions: similar for all three NOS isoforms; cited from earlier work.
Test [3] deals with N368D eNOS mutant (Bos taurus, UniProt P29473, N368D). The test is described as follows: Ki for inhibition of N368D eNOS mutant. The test is classed as biochemical. As to conditions: Asn368 replaced with Asp in eNOS (N368D eNOS mutant). An excerpt: (§1) We next tested this hypothesis by producing D597N nNOS and N368D eNOS mutant proteins.
The target in test [4] is T1, D597N nNOS mutant (Rattus norvegicus, UniProt P29476, D597N).
T1 construct: made in house
The test is described as follows: Ki for inhibition of D597N nNOS mutant. The format is biochemical.
From the text: as §1

The target in test [5] is wild type nNOS (Rattus norvegicus, UniProt P29476). The test is described as follows: Ki for inhibition of wild type nNOS. The format is biochemical.
From the text: as §1

For `N=C(NCCC[C@H](N)C(=O)O)N[N+](=O)[O-]` [L-NNA, L-N^ω-nitroarginine], the potency result in test [1] (L-NNA bound in the active site of eNOS (FIG. 1C legend)) is reported as “low nM”. Moreover, the “selectivity between NOS isoforms” value in test [1] is recorded as “poor selectivity”.

Take `N=C(N)NCCC[C@H](N)C(=O)O` [L-arginine]: the Km result in test [2] is on record as “low μM range”.

Consider `NC(=O)[C@@H]1C[C@@H](N)CN1C(=O)[C@@H](N)CCC/N=C(\N)N[N+](=O)[O-]` [DIP3, L-N^□-nitroarginine-(4R)-amino-L-proline amide], for which the inhibitory constant (Ki) was 5.1 µM in test [3], 21 µM in test [4] and 0.097 µM in test [5].

As usually defined, the Ki is the dissociation constant of the complex between target and ligand, obtained from inhibition or displacement. Lower therefore signals higher affinity.
